Results: PubChem BioAssay AID180 (DTP/NCI, 2004)
Values joined by “and” are separate entries in the source; they are usually repeats but may differ in a detail not shown here. Identical values can stand only once.

System: BDF1 mice, Adenocarcinoma 755 s.c., tumor weight T/C
Assay: NCI In Vivo Anticancer Drug Screen. Data for tumor model Adenocarcinoma 755 (subcutaneous) in B6D2F1 (BDF1) mice
Conditions: endpoint: mean tumor weight, higher = larger tumour
In short: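 Transplantable tumor implanted; mice dosed with compound or vehicle; survival or tumor size recorded; ratio of treated to vehicle control reported.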

[1] = dose: 25.0 mg/kg/injection, schedule: Q01DX011 (ip), vehicle: carboxymethylcellulose (CMC)
[2] = dose: 75.0 mg/kg/injection, schedule: Q01DX011 (ip), vehicle: carboxymethylcellulose (CMC)
[3] = dose: 225.0 mg/kg/injection, schedule: Q01DX011 (ip), vehicle: carboxymethylcellulose (CMC)
[4] = dose: 16.0 mg/kg/injection, schedule: Q01DX011 (ip), vehicle: methylcellulose (MC)
[5] = dose: 31.0 mg/kg/injection, schedule: Q01DX011 (ip), vehicle: methylcellulose (MC)
[6] = dose: 50.0 mg/kg/injection, schedule: Q01DX011 (ip), vehicle: saline
[7] = dose: 30.0 mg/kg/injection, schedule: Q01DX011 (ip), vehicle: carboxymethylcellulose (CMC)
[8] = dose: 120.0 mg/kg/injection, schedule: Q01DX011 (ip), vehicle: carboxymethylcellulose (CMC)
[9] = dose: 240.0 mg/kg/injection, schedule: Q01DX011 (ip), vehicle: carboxymethylcellulose (CMC)
[10] = dose: 50.0 mg/kg/injection, schedule: Q01DX011 (ip), vehicle: carboxymethylcellulose (CMC)
[11] = dose: 600.0 mg/kg/injection, schedule: Q01DX011 (ip), vehicle: carboxymethylcellulose (CMC)

CS(=O)(=O)OCCC(=O)N1CCN(C(=O)CCOS(C)(=O)=O)CC1
T/C (dose: 9.4 mg/kg/injection, schedule: Q01DX011 (ip), vehicle: methylcellulose (MC)): 73 % of control | T/C (dose: 22.0 mg/kg/injection, schedule: Q01DX011 (ip), vehicle: methylcellulose (MC)): 24 % of control and 45 % of control | T/C (dose: 37.5 mg/kg/injection, schedule: Q01DX011 (ip), vehicle: methylcellulose (MC)): 15 % of control | T/C (dose: 44.0 mg/kg/injection, schedule: Q01DX011 (ip), vehicle: methylcellulose (MC)): 9 % of control and 18 % of control | T/C (dose: 88.0 mg/kg/injection, schedule: Q01DX011 (ip), vehicle: methylcellulose (MC)): 3 % of control and 6 % of control

Nc1nc(S(N)(=O)=O)nc2nc[nH]c12
T/C [1]: 57 % of control | T/C [2]: 82 % of control | T/C [3]: 72 % of control

CC(=O)CSc1nc(N)nc2nc[nH]c12
T/C (dose: 3.9 mg/kg/injection, schedule: Q01DX011 (ip), vehicle: methylcellulose (MC)): 32 % of control | T/C (dose: 7.8 mg/kg/injection, schedule: Q01DX011 (ip), vehicle: methylcellulose (MC)): 6 % of control | T/C (dose: 15.6 mg/kg/injection, schedule: Q01DX011 (ip), vehicle: methylcellulose (MC)): 7 % of control

CCCCN=NNc1nc[nH]c1C(N)=O
T/C [4]: 124 % of control | T/C [5]: 75 % of control | T/C (dose: 62.0 mg/kg/injection, schedule: Q01DX011 (ip), vehicle: methylcellulose (MC)): 79 % of control

Oc1ccc2ccccc2c1N=Nc1ccccc1
T/C [6]: 69 % of control | T/C (dose: 100.0 mg/kg/injection, schedule: Q01DX011 (ip), vehicle: saline): 55 % of control | T/C (dose: 200.0 mg/kg/injection, schedule: Q01DX011 (ip), vehicle: saline): 50 % of control

Nc1[nH]c(=S)ncc1NC=O
T/C [7]: 90 % of control | T/C [8]: 91 % of control | T/C [9]: 79 % of control

O=C1NC(=O)c2cc([N+](=O)[O-])cc3cccc1c23
T/C (dose: 85.0 mg/kg/injection, schedule: Q01DX011 (ip), vehicle: methylcellulose (MC)): 104 % of control | T/C (dose: 680.0 mg/kg/injection, schedule: Q01DX011 (ip), vehicle: methylcellulose (MC)): 89 % of control

O=c1[nH]c2nc(Cl)nc(Cl)c2[nH]1
T/C [1]: 54 % of control | T/C [2]: 117 % of control | T/C [3]: 92 % of control

OC1CC([CH2][Hg][I])OC([CH2][Hg][I])C1 (stereo not given)
T/C [1]: 60 % of control | T/C [10]: 30 % of control

C=C(C)C(=O)OCC1CO1 (stereo not given)
T/C (dose: 100.0 mg/kg/injection, schedule: Q01DX011 (ip), vehicle: water): 90 % of control | T/C (dose: 200.0 mg/kg/injection, schedule: Q01DX006 (ip), vehicle: water): 95 % of control | T/C (dose: 200.0 mg/kg/injection, schedule: Q01DX011 (ip), vehicle: other): 102 % of control | T/C (dose: 200.0 mg/kg/injection, schedule: Q01DX011 (ip), vehicle: water): 77 % of control | T/C (dose: 300.0 mg/kg/injection, schedule: Q01DX006 (ip), vehicle: water): 86 % of control

C=C(C)[C@H]1Cc2c(ccc3c2O[C@@H]2COc4cc(OC)c(OC)cc4[C@@H]2C3=O)O1
T/C (dose: 0.5 mg/kg/injection, schedule: Q01DX011 (ip), vehicle: water): 93 % of control | T/C (dose: 0.75 mg/kg/injection, schedule: Q01DX011 (ip), vehicle: water): 96 % of control | T/C (dose: 1.0 mg/kg/injection, schedule: Q01DX011 (ip), vehicle: water): 74 % of control | T/C (dose: 2.0 mg/kg/injection, schedule: Q01DX011 (ip), vehicle: water): 88 % of control

c1nc([N+]23CCC(CC2)CC3)c2[nH]cnc2n1
T/C (dose: 12.5 mg/kg/injection, schedule: Q01DX011 (ip), vehicle: saline): 101 % of control | T/C (dose: 20.0 mg/kg/injection, schedule: Q01DX011 (ip), vehicle: saline): 98 % of control | T/C (dose: 25.0 mg/kg/injection, schedule: Q01DX011 (ip), vehicle: saline): 56 % of control | T/C (dose: 30.0 mg/kg/injection, schedule: Q01DX011 (ip), vehicle: saline): 50 % of control | T/C (dose: 40.0 mg/kg/injection, schedule: Q01DX011 (ip), vehicle: saline): 41 % of control | T/C [6]: 19 % of control and 29 % of control

CC(=O)OCC1OC(n2cnc3c(=O)[nH]c(N)nc32)C(OC(C)=O)C1OC(C)=O (stereo not given)
T/C [7]: 59 % of control | T/C (dose: 60.0 mg/kg/injection, schedule: Q01DX011 (ip), vehicle: carboxymethylcellulose (CMC)): 49 % of control | T/C [8]: 57 % of control | T/C [9]: 51 % of control | T/C (dose: 400.0 mg/kg/injection, schedule: Q01DX011 (ip), vehicle: carboxymethylcellulose (CMC)): 87 % of control | T/C [11]: 83 % of control

Nc1cc(C(=O)O)nc(N)n1
T/C [5]: 68 % of control

CC1(O)CC([CH2][Hg][I])OC([CH2][Hg][I])C1 (stereo not given)
T/C [1]: 96 % of control | T/C [10]: 67 % of control

O=C(O)CCC(=O)Nc1nccs1
T/C (dose: 150.0 mg/kg/injection, schedule: Q01DX011 (ip), vehicle: carboxymethylcellulose (CMC)): 71 % of control | T/C (dose: 300.0 mg/kg/injection, schedule: Q01DX011 (ip), vehicle: carboxymethylcellulose (CMC)): 83 % of control | T/C [11]: 63 % of control

CC(C)CSc1nc(N)nc2nc[nH]c12
T/C (dose: 2.0 mg/kg/injection, schedule: Q01DX011 (ip), vehicle: methylcellulose (MC)): 46 % of control | T/C (dose: 4.0 mg/kg/injection, schedule: Q01DX011 (ip), vehicle: methylcellulose (MC)): 30 % of control | T/C (dose: 8.0 mg/kg/injection, schedule: Q01DX011 (ip), vehicle: methylcellulose (MC)): 10 % of control | T/C [4]: 6 % of control | T/C (dose: 32.0 mg/kg/injection, schedule: Q01DX011 (ip), vehicle: methylcellulose (MC)): 5 % of control | T/C (dose: 64.0 mg/kg/injection, schedule: Q01DX011 (ip), vehicle: methylcellulose (MC)): 4 % of control

[Cl][Pt+2]([Cl])([Cl])[Cl].[Na+].[S-]c1ncnc2nc[nH]c12.[S-]c1ncnc2nc[nH]c12
T/C (dose: 1.0 mg/kg/injection, schedule: Q01DX011 (ip), vehicle: carboxymethylcellulose (CMC)): 90 % of control | T/C (dose: 1.7 mg/kg/injection, schedule: Q01DX011 (ip), vehicle: carboxymethylcellulose (CMC)): 101 % of control | T/C (dose: 2.0 mg/kg/injection, schedule: Q01DX011 (ip), vehicle: carboxymethylcellulose (CMC)): 43 % of control | T/C (dose: 3.5 mg/kg/injection, schedule: Q01DX011 (ip), vehicle: carboxymethylcellulose (CMC)): 31 % of control | T/C (dose: 4.0 mg/kg/injection, schedule: Q01DX011 (ip), vehicle: saline): 5 % of control | T/C (dose: 7.0 mg/kg/injection, schedule: Q01DX011 (ip), vehicle: carboxymethylcellulose (CMC)): 3 % of control and 6 % of control | T/C (dose: 8.0 mg/kg/injection, schedule: Q01DX011 (ip), vehicle: saline): 4 % of control | T/C (dose: 10.0 mg/kg/injection, schedule: Q01DX011 (ip), vehicle: carboxymethylcellulose (CMC)): 21 % of control | T/C (dose: 14.0 mg/kg/injection, schedule: Q01DX011 (ip), vehicle: carboxymethylcellulose (CMC)): 1 % of control and 2 % of control | T/C (dose: 20.0 mg/kg/injection, schedule: Q01DX011 (ip), vehicle: carboxymethylcellulose (CMC)): 1 % of control | T/C (dose: 28.0 mg/kg/injection, schedule: Q01DX011 (ip), vehicle: carboxymethylcellulose (CMC)): 5 % of control | T/C (dose: 32.0 mg/kg/injection, schedule: Q01DX011 (ip), vehicle: saline): 1 % of control | T/C (dose: 43.8 mg/kg/injection, schedule: Q01DX011 (oral), vehicle: saline): 96 % of control | T/C (dose: 87.5 mg/kg/injection, schedule: Q01DX011 (oral), vehicle: saline): 12 % of control | T/C (dose: 175.0 mg/kg/injection, schedule: Q01DX011 (oral), vehicle: saline): 7 % of control
